According to ChEMBL document CHEMBL1201862, “PubChem BioAssay data set” (2004):
Active and inactive are the calls of the source.

What was measured:
Caspase-3 = biological target: T1, Caspase-3 (Homo sapiens, UniProt P42574); experiment: SAR Analysis of small molecule inhibitors of Sentrin-specific proteases (SENPs) using a Caspase-3 Selectivity assay. [Related pubchem assays (depositor defined):AID2540, AID2599, AID434973, AID489001]; format: functional
T1 sequence (P42574 whole entry): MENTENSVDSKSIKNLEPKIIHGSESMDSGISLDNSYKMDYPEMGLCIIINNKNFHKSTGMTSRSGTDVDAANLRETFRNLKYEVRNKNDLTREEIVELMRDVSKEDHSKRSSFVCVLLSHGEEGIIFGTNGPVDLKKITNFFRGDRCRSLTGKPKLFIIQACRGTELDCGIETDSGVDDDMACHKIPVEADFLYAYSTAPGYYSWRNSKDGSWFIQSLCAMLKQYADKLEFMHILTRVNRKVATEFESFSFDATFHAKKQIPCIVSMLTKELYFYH

[1] = biological target: Polyadenylate-binding protein 1 (Homo sapiens, UniProt P11940); experiment: PABP1 MLLE–PAM2 binding inhibitor potency, dose response, biochemical, fluorescence polarization, FITC-PAM2 peptide (AID 602259); format: functional; settings: read-out: IC50_Mean
Chain of Polyadenylate-binding protein 1 (P11940 whole entry): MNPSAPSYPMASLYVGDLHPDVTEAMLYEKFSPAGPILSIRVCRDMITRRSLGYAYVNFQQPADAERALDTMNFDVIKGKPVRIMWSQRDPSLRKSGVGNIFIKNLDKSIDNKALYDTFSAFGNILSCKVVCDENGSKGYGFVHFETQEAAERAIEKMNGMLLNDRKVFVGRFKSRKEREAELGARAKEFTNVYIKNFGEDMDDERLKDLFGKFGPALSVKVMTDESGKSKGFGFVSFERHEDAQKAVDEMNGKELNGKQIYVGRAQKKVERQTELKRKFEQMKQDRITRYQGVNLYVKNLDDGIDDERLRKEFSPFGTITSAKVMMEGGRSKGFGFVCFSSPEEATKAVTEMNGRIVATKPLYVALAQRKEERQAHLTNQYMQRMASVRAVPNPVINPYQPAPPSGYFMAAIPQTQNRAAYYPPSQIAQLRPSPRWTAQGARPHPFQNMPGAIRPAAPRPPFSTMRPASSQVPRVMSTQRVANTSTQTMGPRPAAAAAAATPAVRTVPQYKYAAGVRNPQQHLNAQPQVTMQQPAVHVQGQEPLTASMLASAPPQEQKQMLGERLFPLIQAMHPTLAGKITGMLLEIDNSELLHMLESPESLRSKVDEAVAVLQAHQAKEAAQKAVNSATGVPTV

[2] = biological target: T2, Histone-lysine N-methyltransferase NSD2 (Homo sapiens, UniProt O96028); format: biochemical
T2 sequence (O96028 whole entry): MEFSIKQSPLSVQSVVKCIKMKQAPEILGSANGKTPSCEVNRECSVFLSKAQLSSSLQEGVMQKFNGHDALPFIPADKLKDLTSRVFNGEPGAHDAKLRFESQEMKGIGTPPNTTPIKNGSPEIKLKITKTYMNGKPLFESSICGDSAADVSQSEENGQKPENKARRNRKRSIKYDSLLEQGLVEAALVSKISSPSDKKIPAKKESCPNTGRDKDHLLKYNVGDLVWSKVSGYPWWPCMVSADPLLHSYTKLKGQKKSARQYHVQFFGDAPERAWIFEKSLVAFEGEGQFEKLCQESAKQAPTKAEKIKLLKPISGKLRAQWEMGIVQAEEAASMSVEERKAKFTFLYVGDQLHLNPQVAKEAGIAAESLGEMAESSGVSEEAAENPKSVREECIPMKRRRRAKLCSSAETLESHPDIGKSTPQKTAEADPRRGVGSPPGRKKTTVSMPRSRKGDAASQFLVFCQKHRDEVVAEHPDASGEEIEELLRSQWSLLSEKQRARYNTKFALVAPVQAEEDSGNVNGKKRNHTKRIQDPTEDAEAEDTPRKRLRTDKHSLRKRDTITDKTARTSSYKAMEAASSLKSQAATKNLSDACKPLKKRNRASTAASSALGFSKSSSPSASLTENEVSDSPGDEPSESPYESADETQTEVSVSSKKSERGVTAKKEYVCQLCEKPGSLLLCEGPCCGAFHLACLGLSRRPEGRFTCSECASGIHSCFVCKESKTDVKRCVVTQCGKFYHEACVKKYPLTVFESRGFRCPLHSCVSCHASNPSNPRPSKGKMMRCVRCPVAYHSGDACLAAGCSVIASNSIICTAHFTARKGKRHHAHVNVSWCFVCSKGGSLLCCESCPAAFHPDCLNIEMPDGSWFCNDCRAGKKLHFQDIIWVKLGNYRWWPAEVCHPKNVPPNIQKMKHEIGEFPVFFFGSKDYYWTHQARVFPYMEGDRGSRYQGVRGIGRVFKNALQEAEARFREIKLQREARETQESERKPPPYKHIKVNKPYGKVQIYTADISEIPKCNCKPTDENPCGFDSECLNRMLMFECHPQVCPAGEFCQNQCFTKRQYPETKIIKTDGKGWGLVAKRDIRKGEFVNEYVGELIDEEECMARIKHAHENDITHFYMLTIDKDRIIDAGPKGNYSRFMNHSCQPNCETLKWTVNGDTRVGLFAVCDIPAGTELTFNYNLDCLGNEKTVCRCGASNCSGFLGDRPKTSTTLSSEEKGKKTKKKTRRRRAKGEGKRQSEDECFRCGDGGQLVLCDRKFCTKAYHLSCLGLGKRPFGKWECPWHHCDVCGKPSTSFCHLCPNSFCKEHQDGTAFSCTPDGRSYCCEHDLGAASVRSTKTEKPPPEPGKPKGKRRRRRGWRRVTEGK

[3] = biological target: T3, Tyrosyl-DNA phosphodiesterase 2 (Homo sapiens, UniProt O95551); experiment: human TDP2 enzyme inhibitors, dose response, biochemical, epi absorbance, IC50 (AID 743297)
T3 sequence (O95551 whole entry): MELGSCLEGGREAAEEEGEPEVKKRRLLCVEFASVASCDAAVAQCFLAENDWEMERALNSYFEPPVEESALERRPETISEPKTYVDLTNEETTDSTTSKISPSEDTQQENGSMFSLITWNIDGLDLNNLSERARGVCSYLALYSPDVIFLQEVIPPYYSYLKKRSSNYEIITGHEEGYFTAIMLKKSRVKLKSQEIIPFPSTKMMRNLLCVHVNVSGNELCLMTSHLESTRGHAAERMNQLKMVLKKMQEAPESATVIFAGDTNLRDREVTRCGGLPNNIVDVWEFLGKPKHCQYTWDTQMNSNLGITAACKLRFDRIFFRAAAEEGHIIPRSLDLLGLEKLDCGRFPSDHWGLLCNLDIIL

SUMO-activating enzyme = SUMO-activating enzyme (Homo sapiens, UniProt Q9UBT2); experiment: SUMOylation inhibitor hit validation, confirmation, SUMOylation inhibitor project, biochemical, AlphaScreen (AID 2018); format: functional
Chain of SUMO-activating enzyme (Q9UBE0 whole entry, the tested form may be a part): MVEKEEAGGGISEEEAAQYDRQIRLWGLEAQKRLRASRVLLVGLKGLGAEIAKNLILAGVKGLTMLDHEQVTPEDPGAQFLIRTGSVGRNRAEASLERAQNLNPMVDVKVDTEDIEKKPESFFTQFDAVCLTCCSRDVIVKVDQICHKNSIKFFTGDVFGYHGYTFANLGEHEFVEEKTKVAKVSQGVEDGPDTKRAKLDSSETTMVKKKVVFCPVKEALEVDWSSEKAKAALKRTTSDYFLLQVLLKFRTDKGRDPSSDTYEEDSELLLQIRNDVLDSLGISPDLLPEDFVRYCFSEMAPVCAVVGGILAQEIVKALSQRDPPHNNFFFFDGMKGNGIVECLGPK
Chain of SUMO-activating enzyme (Q9UBT2 whole entry, the tested form may be a part): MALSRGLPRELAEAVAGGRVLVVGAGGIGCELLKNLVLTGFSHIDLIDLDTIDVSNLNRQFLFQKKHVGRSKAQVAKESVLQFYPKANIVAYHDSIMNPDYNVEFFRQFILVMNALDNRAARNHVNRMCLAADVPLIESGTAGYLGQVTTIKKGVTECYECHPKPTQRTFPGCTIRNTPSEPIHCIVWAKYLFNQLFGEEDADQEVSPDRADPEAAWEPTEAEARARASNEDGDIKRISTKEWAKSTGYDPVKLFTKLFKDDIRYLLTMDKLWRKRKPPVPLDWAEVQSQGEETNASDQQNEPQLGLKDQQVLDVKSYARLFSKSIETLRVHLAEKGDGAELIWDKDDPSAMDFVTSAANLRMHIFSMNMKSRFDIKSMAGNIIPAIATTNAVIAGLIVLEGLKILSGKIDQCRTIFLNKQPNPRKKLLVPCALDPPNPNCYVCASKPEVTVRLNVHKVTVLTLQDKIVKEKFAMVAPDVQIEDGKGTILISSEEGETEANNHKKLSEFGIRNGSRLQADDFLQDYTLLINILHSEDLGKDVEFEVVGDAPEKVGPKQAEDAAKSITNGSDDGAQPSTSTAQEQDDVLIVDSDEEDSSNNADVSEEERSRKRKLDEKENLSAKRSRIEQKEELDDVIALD

[4] = ARNT/TACC3 interaction disruptors, potency, confirmation, biochemical, AlphaScreen, cherry-picked samples (AID 651703); format: functional, Homo sapiens;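 note: His-tagged ARNT PAS-B domain paired with GST-TACC3 E629A dimer coactivator fragment; potency of inhibitors that break up the complex and lower AlphaScreen signal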
[5] = test system: Streptococcus sp. 'group A'; experiment: growth inhibition of control SK(-) GAS strain, dose response, counter-screen for streptokinase expression inhibitor project, luminescence, kanamycin, BacTiterGlo, confirmation (AID 1900); format: functional, organism-based
HEK293 [6] = experiment: cells; format: functional, cell-based; settings: Homo sapiens
HEK293 [7] = experiment: NOD2 signaling inhibitors in MDP-stimulated cells, cell-based, uHTS, luminescence (AID 2001); format: functional; settings: Homo sapiens
Mu-type opioid receptor = Mu-type opioid receptor (Homo sapiens, UniProt P35372); experiment: Counterscreen for agonists of heterodimerization of the mu 1 (OPRM1) and delta 1 (OPRD1) opioid receptors: Luminescence-based cell-based high throughput dose response assay to identify agonists of OPRM1 homodimerization.; format: functional;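 note: U2OS cells expressing OPRM1 and beta-arrestin as split beta-galactosidase partners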
Chain of Mu-type opioid receptor (P35372 whole entry): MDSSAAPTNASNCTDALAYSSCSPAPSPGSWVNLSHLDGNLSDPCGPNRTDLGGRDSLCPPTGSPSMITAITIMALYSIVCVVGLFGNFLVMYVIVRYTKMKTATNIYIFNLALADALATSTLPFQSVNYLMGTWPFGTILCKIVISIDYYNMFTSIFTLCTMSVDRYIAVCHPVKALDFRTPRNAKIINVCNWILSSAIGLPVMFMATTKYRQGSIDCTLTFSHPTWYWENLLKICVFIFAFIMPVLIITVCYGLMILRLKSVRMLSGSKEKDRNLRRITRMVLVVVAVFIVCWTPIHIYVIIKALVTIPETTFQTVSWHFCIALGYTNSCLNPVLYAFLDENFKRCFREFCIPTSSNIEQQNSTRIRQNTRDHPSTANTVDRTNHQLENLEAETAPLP

[8] = biological target: 5-hydroxytryptamine receptor 5A (Homo sapiens, UniProt P47898); experiment: Counterscreen for agonists of OPRM1-OPRD1 heterodimerization: luminescence-based cell-based high throughput dose response assay to identify agonists of 5-hydroxytryptamine (serotonin) 5A receptor (HTR5A). [Related pubchem assays (depositor defined):AID504326, AID504355, AID504692, AID504904, AID504905]; format: functional
Chain of 5-hydroxytryptamine receptor 5A (P47898 whole entry): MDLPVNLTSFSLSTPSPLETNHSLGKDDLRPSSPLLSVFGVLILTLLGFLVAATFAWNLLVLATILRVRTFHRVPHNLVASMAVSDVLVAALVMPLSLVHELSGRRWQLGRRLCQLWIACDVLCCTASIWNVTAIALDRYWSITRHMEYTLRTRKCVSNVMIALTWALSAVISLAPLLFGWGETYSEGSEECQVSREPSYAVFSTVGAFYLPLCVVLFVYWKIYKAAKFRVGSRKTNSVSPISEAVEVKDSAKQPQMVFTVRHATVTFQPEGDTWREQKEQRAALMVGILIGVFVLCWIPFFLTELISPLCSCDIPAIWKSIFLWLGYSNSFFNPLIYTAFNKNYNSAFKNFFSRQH

**Q.** For Cc1ccc(C(=O)NNc2cc(N3CCCC3)nc(N3CCCC3)n2)cc1, which IC50 (Caspase-3) is on record?
**A.** > 99 µM (inactive)

**Q.** What does the source list for O=C1/C(=N\c2cccc(O)c2)C(N2CCCCC2)=C(O)c2ccccc21?
**A.** IC50 [1]: > 66 µM (inactive); AC50 [2]: 8.12 µM (active); IC50 [3]: > 42.8 µM (inactive)

**Q.** What does the source list for COC(=O)c1cccc(-c2ccc(C(c3c(C)n[nH]c3O)c3c(C)n[nH]c3O)o2)c1?
**A.** IC50 (SUMO-activating enzyme): 9.36 µM (active); AC50 [4]: 87.9 µM (active); AC50 [2]: > 20 µM (inactive); IC50 [3]: > 128 µM (inactive)

**Q.** Which EC50 [5] does the source give for Cc1cc(/C=C2\SC(=S)N(C)C2=O)c(C)n1-c1ccc(O)cc1 here?
**A.** 3.41 µM (active)

**Q.** What about the IC50 (HEK293 [6]) of the same molecule?
**A.** 0.345 µM (active)

**Q.** And the IC50 (HEK293 [7])?
**A.** 6.54 µM (inactive)

**Q.** What about the EC50 (Mu-type opioid receptor) of the same molecule?
**A.** > 92.5 µM (inactive)

**Q.** What about the EC50 [8] of the same molecule?
**A.** > 92.5 µM (inactive)
